Article PMC2120418 (The Journal of Cell Biology, 1995)

Columns and labels:
[1] = system: dispersed rat pancreatic acini; details: core peptide for the probes; cited from earlier work
[2] = system: rat CCK-A receptors on CHO-CCKR cells; test: Indirect immunofluorescence of surface CCK receptor after agonist occupation; type: cell-based, rat receptor in CHO cells; details: 10 nM CCK-8, 30 min, 37C

Substance | Biological activity of core peptide [1] | Surface immunolabeling of the receptor, level relative to control cells [2]
GIy-[(NIe2S.31)CCK26-33] | fully biologically active | 
CCK-8: native cholecystokinin hormone, nonfluorescent agonist |  | 49%
